# Data: US9474780B2, “GIP and GLP-1 co-agonist compounds” (Eli Lilly and Company, priority 2015, dated 2016)
# Several values for one entry are separate records, joined by “and”; a condition that tells them apart may be missing. Equal entries are not always repeated. Numbered stars: 1 amine (or outer) side, 2 acyl side, 3 side chain; on linkers, the order of the positions; unused ones are H or OH. Square brackets hold non-standard residues; d marks the D form. Side chains are listed from the residue outwards. Peptide text beside a SMILES is read from it. * marks the point of attachment. C18 diacid = O=C(O)CCCCCCCCCCCCCCCCC(=O)*; γGlu = O=C(O)[C@H](CCC(=O)[*:2])N[*:1]; 1Nal = N[C@@H](Cc1cccc2ccccc12)C(=O)O; AEEA = NCCOCCOCC(=O)O; Aib = CC(C)(N)C(=O)O
# How the values were obtained:
# human GLP-1R [1] = target: T1, human GLP-1R (Homo sapiens, UniProt P43220); experiment: Functional hGLP-1R cAMP assay in HEK-293 clonal cells; assay type: cell-based; settings: HEK293; percent of maximal response of hGLP-1(7-36)NH2
# T1 construct: expressed in transfected cells; host or cells: 293HEK, Hygromycin-selected; crude plasma membranes
# T1 sequence (P43220 24-463): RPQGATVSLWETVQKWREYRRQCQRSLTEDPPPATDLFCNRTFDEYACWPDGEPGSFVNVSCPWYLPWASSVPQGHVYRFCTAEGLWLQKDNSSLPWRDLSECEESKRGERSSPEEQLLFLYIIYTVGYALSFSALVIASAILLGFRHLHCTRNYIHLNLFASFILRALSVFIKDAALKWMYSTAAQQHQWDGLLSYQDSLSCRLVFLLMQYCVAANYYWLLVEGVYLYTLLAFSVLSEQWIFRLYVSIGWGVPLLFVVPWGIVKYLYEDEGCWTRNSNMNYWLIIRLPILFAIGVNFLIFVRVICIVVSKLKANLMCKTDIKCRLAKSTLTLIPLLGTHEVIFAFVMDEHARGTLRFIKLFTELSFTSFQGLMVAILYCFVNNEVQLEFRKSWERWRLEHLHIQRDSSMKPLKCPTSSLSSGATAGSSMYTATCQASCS
# Description: (§1) After an incubation of 60 minutes at room temperature, the resulting increase in intracellular cAMP is quantitatively determined using the CisBio cAMP Dynamic 2 HTRF Assay Kit (Bedford, Mass.). Briefly, cAMP levels within the cell are detected by adding the cAMP-d2 conjugate in cell lysis buffer (20 μl) followed by the antibody anti-cAMP-Eu^3+-Cryptate, also in cell lysis buffer (20 μl). The resulting competitive assay is incubated for at least 60 minutes at room temperature, then detected using a PerkinElmer Envision® instrument with excitation at 320 nm and emission at 665 nm and 620 nm Envision units (emission at 665 nm/620 nm*10,000) are inversely proportional to the amount of cAMP present and are converted to nM cAMP per well using a cAMP standard curve. […] A relative EC50 value and percent top (Emax) is derived by non-linear regression analysis using the percent maximal response versus the concentration of the compound of the present invention, fitted to a four-parameter logistic equation.
# human GIP-R = target: T2, human GIP-R (Homo sapiens, UniProt P48546); experiment: Functional hGIP-R cAMP assay in HEK-293 clonal cells; settings: HEK293, read-out: Human GIP-R Emax
# T2 sequence (P48546 22-466): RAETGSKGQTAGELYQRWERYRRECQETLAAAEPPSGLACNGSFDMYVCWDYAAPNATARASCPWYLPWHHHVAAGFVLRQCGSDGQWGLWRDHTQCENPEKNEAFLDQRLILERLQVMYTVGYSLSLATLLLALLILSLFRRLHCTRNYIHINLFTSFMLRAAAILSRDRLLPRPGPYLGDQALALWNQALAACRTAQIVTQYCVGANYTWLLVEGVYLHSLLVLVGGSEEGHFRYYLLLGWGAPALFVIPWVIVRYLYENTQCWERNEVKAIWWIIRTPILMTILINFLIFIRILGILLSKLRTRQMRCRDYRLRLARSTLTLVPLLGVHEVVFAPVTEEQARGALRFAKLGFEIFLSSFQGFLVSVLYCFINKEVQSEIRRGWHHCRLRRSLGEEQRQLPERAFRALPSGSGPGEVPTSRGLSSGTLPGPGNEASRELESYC
# Description: as §1
# human GLP-1R [2] = target: T1, human GLP-1R; assay type: binding; settings: for Molar ratio of hGLP-1R/hGIP-R: normalized by factor 4.53 from native GIP and GLP-1 binding; for Absolute ratio of hGLP-1R/hGIP-R: ratio of Ki values
# mouse islets = experiment: Mouse islet insulin secretion; assay type: cell-based; settings: read-out: Mouse islet insulin secretion Mean ED50
# Description: To assess action of compounds of the present invention in a system representing physiological GLP-1R and GIP-R expression levels insulin secretion, compounds are tested for effects on insulin secretion from wild-type rodent islets.
# After common bile duct cannulation in male C57B1/6 mice (22-26 g) or male Sprague-Dawley rats (approx. 250 g), the pancreas is distended with Hank's buffer (3 ml for mice or 10 ml for rats, containing 2% BSA and 0.75 mg/ml Clzyme collagenase (VitaCyte). Subsequently, tissues are digested in Hank's buffer at 37° C. for 11-13 minutes (mice) or 14-16 minutes for rat pancreata. Purified islets (Histopaque-1100 gradient [Sigma-Aldrich], […] at 750× gravity) are cultured overnight in RPMI-1640 medium (Invitrogen) containing 10% FBS, 100 U/ml penicillin and 100 μg/ml streptomycin, and preconditioned by starvation in Earle's Balanced Salt Solution (EBSS) supplemented with 0.1% BSA and 2.8 mM glucose. Subsequently, islets are incubated in EBSS (Invitrogen) supplemented with 0.1% BSA, 2.8-11.2 mM glucose and increasing levels of compound (6 batches of 4 islets/condition). GLP-1(7-36)amide (30 nM) is used as a positive control. Insulin is measured over 90 minutes in supernatant using the MSD Insulin Assay (Meso Scale, Gaithersburg, Md.).
# [3] = Rat in vivo insulin secretion following intravenous glucose (IVGTT); settings: s.c. 16 hour prior to glucose
# Description: Male Wistar rats (Harlan Labs, Indianapolis, Ind.) are randomized by body weight and dosed 1.5 ml/kg s.c. 16 hour prior to glucose administration and then fasted. Doses are vehicle, 0.1, 0.3, 1, 3 and 10 nmol/kg. Animals are weighed, and then anesthetized with sodium pentobarbital (Nembutal Sodium solution; Ovation Pharmaceuticals) dosed i.p. (65 mg/kg, 30 mg/ml). A time zero blood sample is collected into EDTA tubes after which glucose is administered ([…], 5 ml/kg). Blood samples are collected at 2, 4, 6, 10, 20, and 30 minutes post glucose. Plasma glucose levels are determined using a Hitachi analyzer (Roche) and plasma insulin is measured by the MSD insulin assay (Meso Scale, Gaithersburg, Md.).
# Human GCGR = Human GCGR (Homo sapiens, UniProt P47871); experiment: Functional hGCGR cAMP assay in HEK-293 clonal cells
# Human GCGR, sequence (P47871 26-477): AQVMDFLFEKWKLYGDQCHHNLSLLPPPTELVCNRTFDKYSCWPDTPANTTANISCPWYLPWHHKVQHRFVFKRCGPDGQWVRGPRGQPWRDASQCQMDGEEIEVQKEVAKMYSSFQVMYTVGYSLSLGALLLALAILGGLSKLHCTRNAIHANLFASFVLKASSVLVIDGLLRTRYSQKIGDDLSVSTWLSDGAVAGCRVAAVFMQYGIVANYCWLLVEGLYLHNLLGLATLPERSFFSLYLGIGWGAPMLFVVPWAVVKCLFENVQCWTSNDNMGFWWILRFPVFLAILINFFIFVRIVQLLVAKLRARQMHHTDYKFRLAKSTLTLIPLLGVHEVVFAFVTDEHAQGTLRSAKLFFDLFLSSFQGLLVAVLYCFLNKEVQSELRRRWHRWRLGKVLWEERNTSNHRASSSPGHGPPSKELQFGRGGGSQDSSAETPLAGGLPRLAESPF
# [4] = Pharmacokinetics in cynomolgus monkeys; assay type: in vivo; settings: cynomolgus monkey, plasma, single SC 0.2 mg/kg, male monkeys, n = 2; for AUC(0-inf): read-out: Mean AUC0-inf; for half-life: read-out: Mean T1/2 (converted); for Tmax: read-out: Mean Tmax
# Description: The compounds are administered by a single intravenous or subcutaneous dose (0.2 mg/kg) in 20 mM citrate buffer (pH 7.0) at a volume of 0.21 ml/kg. Blood is collected from each animal at 2, 4, 8, 12, 24, 48, 72, 96, 120, 144, 168, 204, 240, and 312 hours post-dosage. The plasma concentrations of compounds of the present invention are determined by a LC/MS method. Briefly, a compound of the present invention is extracted from 100% Monkey plasma sample (50 μl) diluted with 1×PBS (150 μl) and mixed with N-butanol (400 μl). Three distinct liquid layers are formed with the compound located in the top layer. A volume of 200 μl is transferred to a v-bottom 96-well plate, dried down using heated Nitrogen gas and reconstituted with 100 μl of 30% acetonitrile/0.1% formic acid. 20 μl of the reconstituted sample is injected onto a Supelco Analytical Discovery bio wide C5 3 μm column. The column effluent is directed into a Thermo Q-Exactive mass spectrometer for detection and quantitation.
# [5] = Weight loss, body composition and hepatic steatosis in DIO mice; assay type: in vivo, mouse; settings: for Blood Glucose: Day 15
# Description: The effects on weight loss, body composition and hepatic steatosis in DIO mice for compounds of the present invention are evaluated in C57/BL6 DIO mice. […] Animals are individually housed in a temperature-controlled (24° C.) facility with a 12 hour light/dark cycle (lights on 22:00), and free access to food and water. […] Daily body weight and food intake are measured throughout the study. Absolute changes in body weight are calculated by subtracting the body weight of the same animal prior to the first injection of compound. […] On Day 15, blood glucose is measured with Accu-Chek glucometer (Roche) from tail vein blood and then animals may be sacrificed and livers removed and frozen. Liver triglycerides, determined from homogenates of livers collected at sacrifice, and plasma cholesterol are measured on a Hitachi Modular P clinical analyzer. Statistical comparisons between groups are done using one-way ANOVA followed by Dunnett's multiple comparison test. The ED50 for weight loss lowering is determined in GraphPad Prism using the non-linear fit tool.
Structure (SMILES),Emax (human GLP-1R [1]) [%],Emax (human GIP-R) [%],Molar ratio of hGLP-1R/hGIP-R (human GLP-1R [2]),Absolute ratio of hGLP-1R/hGIP-R (human GLP-1R [2]),EC50 (mouse islets) [nM],% max increase of insulin AUC [3],EC50 (Human GCGR) [nM],CL/F [4] [mL/h/kg],Cmax [4] [ng/mL],AUC(0-inf) [4] [µg·h/mL],half-life [4] [h],Tmax [4] [h],"% Change from starting body weight ([5]; Table 10, 10 nmol/kg) [%]","% Change from starting fat mass ([5]; Table 10, 10 nmol/kg) [%]","% Change from starting body weight ([5]; Table 10, 30 nmol/kg) [%]","% Change from starting fat mass ([5]; Table 10, 30 nmol/kg) [%]","% Change from starting body weight ([5]; Table 10, 100 nmol/kg) [%]","% Change from starting fat mass ([5]; Table 10, 100 nmol/kg) [%]","Plasma Cholesterol ([5]; Table 13, 10 nmol/kg) [mg/dL]","Blood Glucose ([5]; Table 13, 10 nmol/kg) [mg/dL]",further results
CC[C@H](C)[C@H](NC(=O)[C@H](CC(C)C)NC(=O)[C@H](Cc1c[nH]c2ccccc12)NC(=O)[C@H](CCC(N)=O)NC(=O)[C@@H](NC(=O)[C@H](Cc1cccc2ccccc12)NC(=O)[C@H](C)NC(=O)[C@H](CCCCNC(=O)COCCOCCNC(=O)COCCOCCNC(=O)CC[C@H](NC(=O)CCCCCCCCCCCCCCCCC(=O)O)C(=O)O)NC(=O)[C@H](CCC(N)=O)NC(=O)[C@H](C)NC(=O)[C@@H](NC(=O)[C@H](CCCCN)NC(=O)[C@H](CC(=O)O)NC(=O)[C@H](CC(C)C)NC(=O)C(C)(C)NC(=O)[C@@H](NC(=O)[C@H](CO)NC(=O)[C@H](Cc1ccc(O)cc1)NC(=O)[C@H](CC(=O)O)NC(=O)[C@H](CO)NC(=O)[C@@H](NC(=O)[C@H](Cc1ccccc1)NC(=O)[C@@H](NC(=O)CNC(=O)[C@H](CCC(=O)O)NC(=O)C(C)(C)NC(=O)[C@@H](N)Cc1ccc(O)cc1)[C@@H](C)O)[C@@H](C)O)[C@@H](C)CC)[C@@H](C)CC)C(C)C)C(=O)N[C@@H](C)C(=O)NCC(=O)NCC(=O)N1CCC[C@H]1C(=O)N[C@@H](CO)C(=O)N[C@@H](CO)C(=O)NCC(=O)N[C@@H](C)C(=O)N1CCC[C@H]1C(=O)N1CCC[C@H]1C(=O)N1CCC[C@H]1C(=O)N[C@@H](CO)C(N)=O [Example 6] (H-Y[Aib]EGTFTSDYSI[Aib]LDKIAQK([AEEA-AEEA-γGlu-C18 diacid])A[1Nal]VQWLIAGGPSSGAPPPS-NH2),104 ± 4,106 ± 3,1.83,8.3,51.4,289 +/− 4%,> 1000,2.8,2200,72.3,23,4,−17.54 ± 1.17,−34.30 ± 1.20,−19.52 ± 1.18,−39.52 ± 3.18,−29.36 ± 2.62,−56.66 ± 4.96,167.8 ± 15.59,121.4 ± 2.74,"ED50 for insulin, rat IVGTT [3]: 2.58 nmol/kg; % Change from starting body weight ([5]; Table 8, 10 nmol/kg): −15.31 ± 1.25 %; % Change from starting fat mass ([5]; Table 8, 10 nmol/kg): −24.75 ± 1.89 %; % Change from starting body weight ([5]; Table 8, 30 nmol/kg): −21.62 ± 0.92 %; % Change from starting fat mass ([5]; Table 8, 30 nmol/kg): −36.30 ± 2.47 %; % Change from starting body weight ([5]; Table 8, 100 nmol/kg): −33.95 ± 1.93 %; % Change from starting fat mass ([5]; Table 8, 100 nmol/kg): −64.64 ± 4.04 %; Plasma Cholesterol ([5]; Table 11, 10 nmol/kg): 198.4 ± 6.76 mg/dL; Plasma Triglycerides ([5]; Table 11, 10 nmol/kg): 20.78 ± 4.40 mg/dL; Blood Glucose ([5]; Table 11, 10 nmol/kg): 105.8 ± 2.10 mg/dL; Plasma Cholesterol ([5]; Table 11, 30 nmol/kg): 186.4 ± 17.04 mg/dL; Plasma Triglycerides ([5]; Table 11, 30 nmol/kg): 26.12 ± 6.85 mg/dL; Blood Glucose ([5]; Table 11, 30 nmol/kg): 100.1 ± 3.29 mg/dL; Plasma Cholesterol ([5]; Table 11, 100 nmol/kg): 151.4 ± 14.32 mg/dL; Plasma Triglycerides ([5]; Table 11, 100 nmol/kg): 17.26 ± 1.67 mg/dL; Blood Glucose ([5]; Table 11, 100 nmol/kg): 103.6 ± 3.20 mg/dL; Plasma Cholesterol ([5]; Table 13, 30 nmol/kg): 159.8 ± 9.99 mg/dL; Blood Glucose ([5]; Table 13, 30 nmol/kg): 121.9 ± 6.65 mg/dL; Plasma Cholesterol ([5]; Table 13, 100 nmol/kg): 144.2 ± 7.12 mg/dL; Blood Glucose ([5]; Table 13, 100 nmol/kg): 116.1 ± 4.67 mg/dL"
CC[C@H](C)[C@H](NC(=O)[C@H](CC(C)C)NC(=O)[C@H](Cc1c[nH]c2ccccc12)NC(=O)[C@H](CCC(N)=O)NC(=O)[C@@H](NC(=O)[C@H](Cc1cccc2ccccc12)NC(=O)[C@H](C)NC(=O)[C@H](CCCCNC(=O)COCCOCCNC(=O)COCCOCCNC(=O)CC[C@H](NC(=O)CC[C@H](NC(=O)CCCCCCCCCCCCCCCCC(=O)O)C(=O)O)C(=O)O)NC(=O)[C@H](CCC(N)=O)NC(=O)[C@H](C)NC(=O)[C@@H](NC(=O)[C@H](CCCCN)NC(=O)[C@H](CC(=O)O)NC(=O)[C@H](CC(C)C)NC(=O)C(C)(C)NC(=O)[C@@H](NC(=O)[C@H](CO)NC(=O)[C@H](Cc1ccc(O)cc1)NC(=O)[C@H](CC(=O)O)NC(=O)[C@H](CO)NC(=O)[C@@H](NC(=O)[C@H](Cc1ccccc1)NC(=O)[C@@H](NC(=O)CNC(=O)[C@H](CCC(=O)O)NC(=O)C(C)(C)NC(=O)[C@@H](N)Cc1ccc(O)cc1)[C@@H](C)O)[C@@H](C)O)[C@@H](C)CC)[C@@H](C)CC)C(C)C)C(=O)N[C@@H](C)C(=O)NCC(=O)NCC(=O)N1CCC[C@H]1C(=O)N[C@@H](CO)C(=O)N[C@@H](CO)C(=O)NCC(=O)N[C@@H](C)C(=O)N1CCC[C@H]1C(=O)N1CCC[C@H]1C(=O)N1CCC[C@H]1C(=O)N[C@@H](CO)C(N)=O [Example 7] (H-Y[Aib]EGTFTSDYSI[Aib]LDKIAQK([AEEA-AEEA-γGlu-γGlu-C18 diacid])A[1Nal]VQWLIAGGPSSGAPPPS-NH2),97.2 ± 3.4,106 ± 3,1.68,7.6,11.3,278 +/− 26% and 335 +/− 35%,> 1000,1.5,2900,136,31,6,−15.08 ± 1.22,−26.46 ± 2.31,−20.70 ± 1.95,−43.49 ± 5.47,−24.36 ± 2.06,−49.92 ± 3.40,161.8 ± 6.2,113.6 ± 4.16,"Plasma Cholesterol ([5]; Table 13, 30 nmol/kg): 153.6 ± 13.47 mg/dL; Blood Glucose ([5]; Table 13, 30 nmol/kg): 114.7 ± 4.70 mg/dL; Plasma Cholesterol ([5]; Table 13, 100 nmol/kg): 145.4 ± 9.48 mg/dL; Blood Glucose ([5]; Table 13, 100 nmol/kg): 114 ± 2.36 mg/dL"
